Test results published in patent publication US9358272B2, “Multicomponent compositions and their uses” (THE ADMINISTRATORS OF THE TULANE EDUCATIONAL FUND, priority 2011, dated 2016).
Where a SMILES comes first, the peptide text is derived from it. [ ]: non-standard residue; d: D form. The star is where a group is joined. Nle = CCCC[C@H](N)C(=O)O; Cbz = O=C(OCc1ccccc1)*

Key:
[1] = test system: Hela-GFP cells; test: Cell proliferation assay (MTT), Hela-GFP cells; assay type: cell-based, Human
Experimental: (§1) Cell Proliferation Assay (MTT)
(§2) The cell proliferation assay (Promega, Madison, Wis.) was performed as described previously in Sun et al., Bioorg Med Chem Lett, 2004, Vol. 14, pp. 2041-2046. Briefly, fifty μl of medium with or without tested compounds was added to 96-well plates. Another 50 μl of tested cancer cells (1×10^5 cells/ml) suspended in culture medium was dispensed into each well. The plates were incubated at 37° C. for 3 days. Afterward, plates were added with a 15 μl dye solution per well and incubated at 37° C. for 4 hours. To each well was then added 100 μl of the solubilization solution and the plates were incubated at 37° C. again until the contents in each well became a uniformly colored solution. The plates were measured at 570 nm by a Victor Reader (PerkinElmer).

[2] = test system: Hela-ICN1 cells; test: Cell proliferation assay (MTT), Notch1-activated Hela-ICN1 cells; assay type: cell-based, Human
Experimental: as §1, §2

[3] = test system: cervical cancer Hela cells; test: Cell proliferation assay (MTT), cervical cancer Hela cells; assay type: cell-based, Human; conditions: single agents and combinations, VPA 2.5 mM in FIGS. 19, 22
[4] = test system: pancreatic carcinoid BON cells; test: Cell proliferation assay (MTT), BON cells; assay type: cell-based, Human; conditions: single agents and combinations, 2.5 mM VPA or 10 uM SBHA in FIGS. 20, 23
[5] = test system: small cell lung cancer DMS-53 cells; test: Cell proliferation assay (MTT), DMS-53 cells; assay type: cell-based; conditions: single agents and combinations, 2.5 mM VPA or 10 uM SBHA in FIGS. 21, 24
[6] = test system: cAMP production in Hela-GFP cells; test: Fluorescence polarization (FP) cAMP assay, Hela-GFP cells; assay type: cell-based, Human; conditions: control Hela (Hela-GFP) cells
Experimental: (§3) Fluorescence Polarization (FP) cAMP Assay The FP cAMP assay (FPA202) was performed according to the manufacturer's protocol (PerkinElmer, Boston, Mass. 02118-2512). Briefly, ten μl of forskolin at different concentrations were added to each well, then to each well ten μl of cell suspended in Stimulation Mix (made fresh before use by mixing anti-cAMP antibody in stimulation buffer) was added. Plates were incubated 30 minutes at 37° C. Twenty μl of Detection Mix (Fluo-cAMP stock diluted in Detection Buffer) was added and continued incubation 30 minutes at 37° C. Meanwhile, the standard curve, and controls were done. The cAMP was measured by Victor Reader (PerkinElmer).

[7] = test system: cAMP production in Hela-ICN1 cells; test: Fluorescence polarization (FP) cAMP assay, Hela-ICN1 cells; assay type: cell-based, Human; conditions: for cAMP production: Hela cells with activated Notch1 signaling (Hela-ICN1)
Experimental: as §3

[8] = test system: ovarian cancer OVCAR8 cells; test: Cell proliferation assay (MTT), OVCAR8 cells; assay type: cell-based, Human; conditions: single agents and combinations
Experimental: as §1
(§4) The cell proliferation assay was performed as described previously in Sun et al., Bioorg Med Chem Lett, 2004, Vol. 14, pp. 2041-2046. Briefly, 50 μl aliquots of medium with different concentrations of compounds were added to 96-well plates. All compound concentrations were tested in triplicate. Another 50 μl of the cell stock (1×10^5 cells/ml of media) was dispensed into each test well and the plates were incubated at 37° C. in a CO2 incubator for 3 days. Following the incubation period, 15 μl of the dye solution was added to each well and the plates were then incubated at 37° C. for 4 hours, followed by the addition of 100 μl per well of the solubilization solution. The plates were incubated at 37° C. until the contents in each well became a uniform-colored solution. The absorbance was measured and recorded at 570 nm by a Victor Plate Reader.
(§5) The cell proliferation assay (Promega, Madison, Wis.) was performed as described in Sun et al., Bioorg Med Chem Lett, 2004, Vol. 14, pp. 2041-2046. The absorbance was measured and recorded at 570 nm by a Victor Plate Reader (PerkinElmer, Boston, Mass.).

[9] = test system: pancreatic cancer CFPAC-1 cells; test: Cell proliferation assay (MTT), CFPAC-1 cells; assay type: cell-based, Human; conditions: single agents and combinations
Experimental: as §1, §4, §5

[10] = test system: colonrectal cancer HT-29 cells; test: Cell proliferation assay (MTT), HT-29 cells; assay type: cell-based, Human; conditions: single agents and combinations
Experimental: as §1, §4, §5

Q: How did the “inhibitory rate of cell proliferation (MTT)” value (shortened to “inhibitory rate”) ([1]; compound at 1 μM) turn out when `C[C@H](N)C(=O)NCC(=O)N[C@H]1CSSC[C@@H](C(=O)O)NC(=O)[C@H](CO)NC(=O)[C@H]([C@@H](C)O)NC(=O)[C@H](Cc2ccccc2)NC(=O)[C@H]([C@@H](C)O)NC(=O)[C@H](CCCCN)NC(=O)[C@H](Cc2c[nH]c3ccccc23)NC(=O)[C@H](Cc2ccccc2)NC(=O)[C@H](Cc2ccccc2)NC(=O)[C@H](CC(N)=O)NC(=O)[C@H](CCCCN)NC1=O` [SST-14, Ala-Gly-Cys-Lys-Asn-Phe-Phe-Trp-Lys-Thr-Phe-Thr-Ser-Cys] was run?
A: almost no effect

Q: And the “inhibitory rate” value ([1]; compound at 10 μM)?
A: 28%

Q: What about the “inhibitory rate” value ([1]; compound at 20 μM) of the same molecule?
A: about 40%

Q: And the “inhibition of cell growth (MTT)” value ([2]; compound at 1 μM)?
A: 2%

Q: What about the “inhibition of cell growth (MTT)” value ([2]; compound at 10 μM) of the same molecule?
A: 8%

Q: Which “cell growth suppression (MTT), in words” value [3] does the source give for `O=C(CCCCCCC(=O)NO)NO` [SBHA, suberoyl bis-hydroxamic acid] here?
A: suppressed

Q: What about the “cell growth suppression (MTT), in words” value [4] of the same molecule?
A: induced growth suppression

Q: What about the “cell growth suppression (MTT), in words” value [5] of the same molecule?
A: induced growth suppression

Q: What does the source list for `C=C[C@@]1(C)CC(=O)[C@]2(O)[C@@]3(C)[C@@H](O)CCC(C)(C)[C@@H]3[C@H](O)[C@H](OC(C)=O)[C@@]2(C)O1` [forskolin]?
A: cAMP production ([6]; forskolin at 1 μM): 0.005 pMol cAMP per 10^3 cells; cAMP production ([6]; forskolin at 10 μM): 0.018 pMol cAMP per 10^3 cells; cAMP production ([6]; forskolin at 50 μM): 0.024 pMol cAMP per 10^3 cells; cAMP production ([7]; forskolin at 1 μM): 0.05 pMol cAMP per 10^3 cells; cAMP production ([7]; forskolin at 10 μM): 0.25 pMol cAMP per 10^3 cells; cAMP production ([7]; forskolin at 50 μM): 0.46 pMol cAMP per 10^3 cells; cAMP concentration in Hela-ICN1 cells relative to Hela-GFP cells ([7]; forskolin at 1 μM): 10 fold; cAMP concentration in Hela-ICN1 cells relative to Hela-GFP cells ([7]; forskolin at 10 μM): 14 fold; cAMP concentration in Hela-ICN1 cells relative to Hela-GFP cells ([7]; forskolin at 50 μM): 19 fold

Q: With `CCCC[C@@H](C=O)NC(=O)[C@H](CC(C)C)NC(=O)[C@H](CC(C)C)NC(=O)OCc1ccccc1` [NLE, Z-Leu-Leu-Nle-CHO] (Cbz-Leu-Leu-[Nle]-aldehyde) as the molecule, how does the “cell growth suppression (MTT), in words” value [8] read?
A: induced cell growth arrest

Q: What about the “cell growth suppression (MTT), in words” value [9] of the same molecule?
A: induced cell growth arrest

Q: What about the “cell growth suppression (MTT), in words” value [10] of the same molecule?
A: induced cell growth arrest
